Test systems include SN12C; SK-OV-3; UO-31; DLD-1; HL-60; K562; A549; SF-268; U-251; A498; IGROV-1; SNB-78; SF-295; TK-10; M14; HCC 2998; SK-MEL-2; OVCAR-5; DU-145; PC-3.
Assay in all cases: NCI anticancer screen, dose series, 48 h

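Briefly, cells in 96-well plates were exposed to five compound concentrations for 48 h, and endpoints were estimated by linear interpolation. GI50: concentration for 50% inhibition of growth.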 The source made the active and inactive calls. No stated cut-off is given here; in the data, active = GI50 up to about 1.1 µM and inactive = higher.

On to `O=C(Nc1ccccc1)n1cc(-c2ccccn2)c(N2CCOCC2)n1`, for which the GI50 is 35.2 µM (inactive) with SN12C; 9.84 µM (inactive) in the assay with SK-OV-3; 11.8 µM (inactive) with UO-31; 6.61 µM (inactive) with DLD-1; 2.44 µM (inactive) in the assay on HL-60; 3.58 µM (inactive) in the assay with K562. The GI50 is 18.8 µM (inactive) in the assay with A549; > 100 µM (inactive) in the assay with SF-268; 4.94 µM (inactive) in the assay on U-251; 4.11 µM (inactive) with A498; 12 µM (inactive) in the assay on IGROV-1; 24.9 µM (inactive) with SNB-78. Moreover, the GI50 in the assay with SF-295 is 1.9 µM (inactive); with TK-10, > 100 µM (inactive); in the assay with M14, 8.91 µM (inactive); in the assay on HCC 2998, 21.7 µM (inactive).

`CCCOCN1COCN/C1=N\C#N`: the GI50 is > 100 µM (inactive) in the assay on SN12C; > 100 µM (inactive) in the assay with SK-OV-3; > 100 µM (inactive) with UO-31; 70.1 µM (inactive) with DLD-1; > 100 µM (inactive) in the assay on HL-60; > 100 µM (inactive) in the assay on K562. Moreover, the GI50 with SK-MEL-2 is > 100 µM (inactive); in the assay on A549, 42.3 µM (inactive); in the assay with SF-268, 39.1 µM (inactive); in the assay with U-251, 21.6 µM (inactive); in the assay with A498, > 100 µM (inactive); with IGROV-1, > 100 µM (inactive). Moreover, the GI50 in the assay on OVCAR-5, with SNB-78, in the assay on SF-295, in the assay on TK-10, in the assay on M14 and with HCC 2998 was > 100 µM (inactive) each time.

Consider `COc1ccc([C@@H]2OC(=O)C3C2C(=O)O[C@H]3c2ccc(OC)cc2)cc1` (some centres not stated), for which the GI50 in the assay with SN12C, in the assay on SK-OV-3, with UO-31, with DLD-1, in the assay on HL-60 and with K562 was > 100 µM (inactive) each time. The GI50 in the assay with SK-MEL-2, in the assay with A549, with U-251, in the assay on A498, in the assay on IGROV-1 and in the assay with SNB-78 was > 100 µM (inactive) in each case. The GI50 with SF-295 and with HCC 2998 was > 100 µM (inactive) each time.

As for `COc1cc(NS(C)(=O)=O)ccc1Nc1c2ccccc2nc2c1[nH]c1ccc(NC3OC(CO)C(O)C(O)C3O)cc12` (configuration not stated), the GI50 with DU-145 is 0.0281 µM (active); in the assay on SN12C it was 0.0203 µM (active); in the assay with SK-OV-3, 0.0173 µM (active); in the assay on UO-31, 0.128 µM (active); in the assay on DLD-1, 0.293 µM (active); with HL-60, 0.0153 µM (active). For the same molecule, the GI50 in the assay with K562 is 0.191 µM (active); in the assay on SK-MEL-2, 0.269 µM (active); in the assay with A549, < 0.0134 µM (active); in the assay with SF-268, 0.018 µM (active); with U-251 it was < 0.0201 µM (active); with A498 it was 0.129 µM (active). Besides, the GI50 was 0.248 µM (active) in the assay on IGROV-1; 0.444 µM (active) in the assay on OVCAR-5; 1.27 µM (inactive) in the assay on SNB-78; < 0.0139 µM (active) in the assay on SF-295; 0.197 µM (active) in the assay on TK-10; 0.0399 µM (active) in the assay on M14. The figures for the GI50 in the assay on PC-3 and with HCC 2998 were 0.0908 µM (active) and 0.169 µM (active), respectively.

On to `CN1C/C(=C\c2ccccc2)C2=NN(C(N)=S)[C@H](c3ccccc3)[C@@H]2C1`, for which the GI50 in the assay with SN12C is > 100 µM (inactive); with SK-OV-3, > 100 µM (inactive); in the assay with UO-31, 36.9 µM (inactive); in the assay on DLD-1, 53.7 µM (inactive); in the assay with HL-60 it was 21.7 µM (inactive); in the assay on K562, 36 µM (inactive). Further, the GI50 in the assay with SK-MEL-2 is > 100 µM (inactive); in the assay with A549, 52 µM (inactive); in the assay with SF-268, > 100 µM (inactive); with U-251, > 100 µM (inactive); in the assay on A498 it was > 100 µM (inactive); in the assay on IGROV-1, > 100 µM (inactive). Moreover, the GI50 with OVCAR-5 is > 100 µM (inactive); with SNB-78 it was 28.1 µM (inactive); with SF-295, 87.9 µM (inactive); with TK-10, > 100 µM (inactive); in the assay with M14, 95.1 µM (inactive); in the assay on HCC 2998 it was > 100 µM (inactive).

On to `NC(=O)C(=O)N/N=C1\C(=O)N(c2ccc(Cl)cc2Cl)C(=O)C1C(=O)Nc1ccc(Cl)cc1Cl` (configuration not stated), for which the GI50 with SN12C, in the assay on SK-OV-3, in the assay with UO-31, with DLD-1, in the assay with HL-60 and with K562 was > 100 µM (inactive) each time. The GI50 in the assay with SK-MEL-2, in the assay on A549, with SF-268, with U-251, in the assay on A498 and in the assay with IGROV-1 was > 100 µM (inactive) throughout. Further, the GI50 with OVCAR-5, in the assay with SNB-78, in the assay with SF-295, with TK-10, in the assay on M14 and in the assay with HCC 2998 was > 100 µM (inactive) in each case.

With `Cc1cc(=O)n(-c2ccccc2)c(=O)o1`, the GI50 in the assay on SN12C, in the assay on SK-OV-3, in the assay on UO-31, with DLD-1, in the assay on HL-60 and in the assay on K562 was > 100 µM (inactive) each time. Further, the GI50 with SK-MEL-2, in the assay on A549, in the assay with SF-268, with U-251, in the assay with A498 and in the assay on IGROV-1 was > 100 µM (inactive) each time. Also, the GI50 in the assay with OVCAR-5 is > 100 µM (inactive); with SNB-78, > 100 µM (inactive); in the assay on SF-295 it was 49.5 µM (inactive); with TK-10, > 100 µM (inactive); in the assay on M14, > 100 µM (inactive); in the assay on HCC 2998, > 100 µM (inactive).

In the case of `O=C(COc1ccc(Cl)cc1)N1CCN(C(=O)COc2ccc(Cl)cc2)c2ccccc21`, the GI50 with SK-OV-3 was 81.5 µM (inactive); with UO-31 it was 7.23 µM (inactive); with DLD-1, 64 µM (inactive); with HL-60, 13.4 µM (inactive); in the assay on K562 it was 37.6 µM (inactive); in the assay with SK-MEL-2 it was 28.1 µM (inactive). In addition, the GI50 is 33.5 µM (inactive) in the assay on A549; 41.6 µM (inactive) in the assay with SF-268; 74 µM (inactive) in the assay with U-251; 74.8 µM (inactive) in the assay with A498; 50.7 µM (inactive) in the assay with IGROV-1; 70 µM (inactive) with OVCAR-5. The GI50 with SNB-78 was 45.4 µM (inactive); in the assay with SF-295, 54.5 µM (inactive); in the assay with TK-10, 33.4 µM (inactive); with HCC 2998 it was > 100 µM (inactive).

As for `CC(C)OC(=O)C1Cc2c([nH]c3ccccc23)C(c2ccccc2)N1` (configuration not stated), the GI50 was > 100 µM (inactive) in the assay with SN12C; > 100 µM (inactive) with SK-OV-3; 18 µM (inactive) with UO-31; 23.6 µM (inactive) in the assay on DLD-1; 33 µM (inactive) in the assay on HL-60; 50.1 µM (inactive) in the assay with K562. Further, the GI50 is 18.2 µM (inactive) with SK-MEL-2; 66.1 µM (inactive) in the assay on A549; 56.9 µM (inactive) in the assay with SF-268; > 100 µM (inactive) in the assay with U-251; 88.5 µM (inactive) in the assay with A498; > 100 µM (inactive) in the assay with IGROV-1. In addition, the GI50 in the assay with OVCAR-5 is > 100 µM (inactive); in the assay with SNB-78, > 100 µM (inactive); with SF-295, > 100 µM (inactive); in the assay on TK-10 it was > 100 µM (inactive); in the assay with M14, 81.7 µM (inactive); with HCC 2998, 30.5 µM (inactive).

In the case of `C[N+](C)(C)CC(=O)N/N=C(\CCC(=O)NCCc1ccccc1)CC(=O)c1ccccc1`, the GI50 in the assay with SN12C, in the assay on SK-OV-3, in the assay on UO-31, with DLD-1, in the assay on HL-60 and with K562 was > 100 µM (inactive) in each case. Also, the GI50 in the assay on SK-MEL-2, in the assay on A549, with SF-268, in the assay with U-251, with A498 and in the assay with IGROV-1 was > 100 µM (inactive) in each case. The GI50 in the assay with OVCAR-5, in the assay on SNB-78, in the assay with SF-295, in the assay on TK-10, with M14 and in the assay on HCC 2998 was > 100 µM (inactive) throughout.

On to `Cc1c(Cl)ccc2[s+]snc12`, for which the GI50 is 24.3 µM (inactive) in the assay with SN12C; > 100 µM (inactive) in the assay with SK-OV-3; 23.9 µM (inactive) in the assay on UO-31; 25.4 µM (inactive) with DLD-1; 17.6 µM (inactive) in the assay with HL-60; 22.6 µM (inactive) in the assay with K562. The GI50 was 29.2 µM (inactive) in the assay on SK-MEL-2; 38.6 µM (inactive) in the assay with A549; 23.8 µM (inactive) in the assay with SF-268; 25.3 µM (inactive) in the assay with U-251; 68.2 µM (inactive) in the assay on A498; 48.8 µM (inactive) in the assay on IGROV-1. Besides, the GI50 with OVCAR-5 was > 100 µM (inactive); in the assay on SNB-78 it was 31 µM (inactive); in the assay on SF-295 it was > 100 µM (inactive); in the assay with TK-10 it was 62.7 µM (inactive); with M14 it was 24.5 µM (inactive); in the assay with HCC 2998 it was 88.3 µM (inactive).

The record behind these values is ChEMBL document CHEMBL1201862, “PubChem BioAssay data set” (2004).
